Measured values taken from patent US20250228239A1, “MOLECULES HAVING PESTICIDAL UTILITY, AND INTERMEDIATES, COMPOSITIONS, AND PROCESSES, RELATED THERETO” (priority 2024, published 2025).
Read-outs that look alike come from different tables or passages of the source.

How the values were obtained:
[1] = system: Beet Armyworm (Spodoptera exigua, LAPHEG); assay: Bioassays on Beet Armyworm (BAW), 128-well diet tray assay; type: in vivo; conditions: Spodoptera exigua, Beet Armyworm
Outline: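 Test molecule was dissolved in 90:10 acetone-water and applied at 50 μg/cm^2 onto artificial diet in eight wells, then dried. Second instar larvae, one to five per well, were added, and trays were kept vented at 25° C. with a 14:10 photoperiod for five to seven days before mortality was recorded.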

[2] = system: Cabbage Looper (Trichoplusia ni, TRIPNI); assay: Bioassays on Cabbage Looper (CL), 128-well diet tray assay; type: in vivo; conditions: Trichoplusia ni, Cabbage Looper
Outline: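 Second-instar larvae (1–5 per well) placed on artificial diet surface-treated with 50 μg/cm^2 test molecule applied in 90:10 acetone-water and dried. Held at 25° C., 14:10 light-dark, for five to seven days. Percent mortality scored per well and averaged over eight wells.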

[3] = Table ABC / ABC-DP rating, read-out: BAW rating
[4] = Table ABC / ABC-DP rating, read-out: CL rating

Structure (SMILES) | pest or weed control at 50 µg/cm2 ([1]; rating class, read-out: BAW) [%] | pest or weed control at 50 µg/cm2 ([2]; rating class, read-out: CL) [%] | pest or weed control at 50 µg/cm2 [1, 3] [%] | pest or weed control at 50 µg/cm2 [2, 4] [%]
O=C(Nc1cc(NC(=O)C(F)(F)F)ccc1F)c1cc(NC(=O)[C@H]2[C@H](c3cc(Cl)cc(Cl)c3)C2(Cl)Cl)ccc1Cl (relative stereo) [F1640, trans-2-Chloro-5-(2,2-dichloro-3-(3,5-dichlorophenyl)cyclopropane-1-carboxamido)-N-(2-fluoro-5-(2,2,2-trifluoroacetamido)phenyl)benzamide] | 50 to 100 | 50 to 100 | – | –
O=C(Nc1ccc(F)c(NC(=O)C(F)(F)F)c1)c1cc(NC(=O)[C@H]2[C@H](c3cc(Cl)cc(Cl)c3)C2(Cl)Cl)ccc1Cl (relative stereo) [F1641, trans-2-Chloro-5-(2,2-dichloro-3-(3,5-dichlorophenyl)cyclopropane-1-carboxamido)-N-(4-fluoro-3-(2,2,2-trifluoroacetamido)phenyl)benzamide] | 50 to 100 | 50 to 100 | – | –
CCNC(=O)c1cc(NC(=O)[C@H]2[C@H](c3ccc(F)c(Cl)c3)C2(Cl)Cl)cc(F)c1Cl (relative stereo) [F2033, trans-2-Chloro-5-(2,2-dichloro-3-(3-chloro-4-fluorophenyl)cyclopropane-1-carboxamido)-N-ethyl-3-fluorobenzamide] | – | – | 50 to 100 | 50 to 100
O=C(NCC(F)(F)F)c1cc(NC(=O)[C@H]2[C@H](c3ccc(F)c(Cl)c3)C2(Cl)Cl)cc(F)c1Cl (relative stereo) [F2034, trans-2-Chloro-5-(2,2-dichloro-3-(3-chloro-4-fluorophenyl)cyclopropane-1-carboxamido)-3-fluoro-N-(2,2,2-trifluoroethyl)benzamide] | – | – | 50 to 100 | 50 to 100
CCNC(=O)c1cc(NC(=O)[C@H]2[C@H](c3ccc(F)c(Cl)c3)C2(Cl)Cl)cc(Cl)c1C (relative stereo) [F2041, trans-3-Chloro-5-(2,2-dichloro-3-(3-chloro-4-fluorophenyl)cyclopropane-1-carboxamido)-N-ethyl-2-methylbenzamide] | – | – | 50 to 100 | 50 to 100
O=C(NCC(F)(F)F)c1cc(NC(=O)[C@H]2[C@H](c3ccc(F)c(Cl)c3)C2(Cl)Cl)cc(Cl)c1F (relative stereo) [F2045, trans-3-Chloro-5-(2,2-dichloro-3-(3-chloro-4-fluorophenyl)cyclopropane-1-carboxamido)-2-fluoro-N-(2,2,2-trifluoroethyl)benzamide] | – | – | 50 to 100 | 50 to 100
O=C(NCC(F)(F)C(F)(F)F)c1cc(NC(=O)[C@H]2[C@H](c3ccc(F)c(Cl)c3)C2(Cl)Cl)cc(Cl)c1F (relative stereo) [F2046, trans-3-Chloro-5-(2,2-dichloro-3-(3-chloro-4-fluorophenyl)cyclopropane-1-carboxamido)-2-fluoro-N-(2,2,3,3,3-pentafluoropropyl)benzamide] | – | – | 50 to 100 | 50 to 100
CCNC(=O)c1cc(NC(=O)[C@H]2[C@H](c3ccc(F)c(Cl)c3)C2(Cl)Cl)cc(Cl)c1F (relative stereo) [F2047, trans-3-Chloro-5-(2,2-dichloro-3-(3-chloro-4-fluorophenyl)cyclopropane-1-carboxamido)-N-ethyl-2-fluorobenzamide] | – | – | 50 to 100 | 50 to 100
O=C(NCCCCl)c1cc(NC(=O)[C@H]2[C@H](c3ccc(F)c(Cl)c3)C2(Cl)Cl)cc(Cl)c1F (relative stereo) [F2048, trans-3-Chloro-N-(3-chloropropyl)-5-(2,2-dichloro-3-(3-chloro-4-fluorophenyl)cyclopropane-1-carboxamido)-2-fluorobenzamide] | – | – | 50 to 100 | 50 to 100
O=C(NCC(F)(F)F)c1cc(NC(=O)[C@H]2[C@H](c3ccc(F)c(Cl)c3)C2(Cl)Cl)cc(F)c1F (relative stereo) [F2049, trans-5-(2,2-Dichloro-3-(3-chloro-4-fluorophenyl)cyclopropane-1-carboxamido)-2,3-difluoro-N-(2,2,2-trifluoroethyl)benzamide] | – | – | 50 to 100 | 50 to 100
O=C(NCC(F)(F)C(F)(F)F)c1cc(NC(=O)[C@H]2[C@H](c3ccc(F)c(Cl)c3)C2(Cl)Cl)cc(F)c1F (relative stereo) [F2050, trans-5-(2,2-Dichloro-3-(3-chloro-4-fluorophenyl)cyclopropane-1-carboxamido)-2,3-difluoro-N-(2,2,3,3,3-pentafluoropropyl)benzamide] | – | – | 50 to 100 | 50 to 100
CCNC(=O)c1cc(NC(=O)[C@H]2[C@H](c3ccc(F)c(Cl)c3)C2(Cl)Cl)cc(F)c1F (relative stereo) [F2051, trans-5-(2,2-Dichloro-3-(3-chloro-4-fluorophenyl)cyclopropane-1-carboxamido)-N-ethyl-2,3-difluorobenzamide] | – | – | 50 to 100 | 50 to 100
O=C(NCCCCl)c1cc(NC(=O)[C@H]2[C@H](c3ccc(F)c(Cl)c3)C2(Cl)Cl)cc(F)c1F (relative stereo) [F2052, trans-N-(3-Chloropropyl)-5-(2,2-dichloro-3-(3-chloro-4-fluorophenyl)cyclopropane-1-carboxamido)-2,3-difluorobenzamide] | – | – | 50 to 100 | 50 to 100
CCNC(=O)c1cc(NC(=O)[C@H]2[C@H](c3ccc(F)c(Cl)c3)C2(Cl)Cl)cc(C(F)(F)F)c1Cl (relative stereo) [F2053, trans-2-Chloro-5-(2,2-dichloro-3-(3-chloro-4-fluorophenyl)cyclopropane-1-carboxamido)-N-ethyl-3-(trifluoromethyl)benzamide] | – | – | 50 to 100 | 50 to 100
COc1c(Cl)cc(NC(=O)[C@H]2[C@H](c3ccc(F)c(Cl)c3)C2(Cl)Cl)cc1C(=O)NCC(F)(F)F (relative stereo) [F2061, trans-3-Chloro-5-(2,2-dichloro-3-(3-chloro-4-fluorophenyl)cyclopropane-1-carboxamido)-2-methoxy-N-(2,2,2-trifluoroethyl)benzamide] | – | – | 50 to 100 | 50 to 100
COc1c(Cl)cc(NC(=O)[C@H]2[C@H](c3ccc(F)c(Cl)c3)C2(Cl)Cl)cc1C(=O)NCC(F)(F)C(F)(F)F (relative stereo) [F2062, trans-3-Chloro-5-(2,2-dichloro-3-(3-chloro-4-fluorophenyl)cyclopropane-1-carboxamido)-2-methoxy-N-(2,2,3,3,3-pentafluoropropyl)benzamide] | – | – | 50 to 100 | 50 to 100
O=C(NNc1ccc(Cl)c(C(F)(F)F)c1)c1cc(NC(=O)[C@H]2[C@H](c3cc(Cl)cc(Cl)c3)C2(Cl)Cl)ccc1Cl (relative stereo) [F2501, trans-2,2-dichloro-N-(4-chloro-3-(2-(4-chloro-3-(trifluoromethyl)phenyl)hydrazine-1-carbonyl)phenyl)-3-(3,5-dichlorophenyl)cyclopropane-1-carboxamide] | – | – | 50 to 100 | 50 to 100
CN(NC(=O)c1cc(NC(=O)[C@H]2[C@H](c3cc(Cl)cc(Cl)c3)C2(Cl)Cl)ccc1Cl)c1ccccn1 (relative stereo) [F2503, trans-2,2-Dichloro-N-(4-chloro-3-(2-methyl-2-(pyridin-2-yl)hydrazine-1-carbonyl)phenyl)-3-(3,5-dichlorophenyl)cyclopropane-1-carboxamide] | – | – | 50 to 100 | 50 to 100
O=C(CC(F)(F)F)NNC(=O)c1cc(NC(=O)[C@H]2[C@H](c3cc(Cl)cc(Cl)c3)C2(Cl)Cl)ccc1Cl (relative stereo) [F2516, trans-2,2-Dichloro-N-(4-chloro-3-(2-(3,3,3-trifluoropropanoyl)hydrazine-1-carbonyl)phenyl)-3-(3,5-dichlorophenyl)cyclopropane-1-carboxamide] | – | – | 50 to 100 | 50 to 100
O=C(NNC(=O)C1CC1(F)F)c1cc(NC(=O)[C@H]2[C@H](c3cc(Cl)cc(Cl)c3)C2(Cl)Cl)ccc1Cl (relative stereo) [F2517, trans-2,2-Dichloro-N-(4-chloro-3-(2-(2,2-difluorocyclopropane-1-carbonyl)hydrazine-1-carbonyl)phenyl)-3-(3,5-dichlorophenyl)cyclopropane-1-carboxamide] | – | – | 50 to 100 | 50 to 100
CN(NC(=O)c1cc(NC(=O)[C@H]2[C@H](c3cc(Cl)cc(Cl)c3)C2(Cl)Cl)ccc1Cl)C(=O)C(F)(F)F (relative stereo) [F2523, trans-2,2-Dichloro-N-(4-chloro-3-(2-methyl-2-(2,2,2-trifluoroacetyl)hydrazine-1-carbonyl)phenyl)-3-(3,5-dichlorophenyl)cyclopropane-1-carboxamide] | – | – | 50 to 100 | 50 to 100
CN(C)CC(=O)N(C)NC(=O)c1cc(NC(=O)[C@H]2[C@H](c3cc(Cl)cc(Cl)c3)C2(Cl)Cl)ccc1Cl (relative stereo) [F2526, trans-2,2-Dichloro-N-(4-chloro-3-(2-(dimethylglycyl)-2-methylhydrazine-1-carbonyl)phenyl)-3-(3,5-dichlorophenyl)cyclopropane-1-carboxamide] | – | – | 50 to 100 | 50 to 100
CN(NC(=O)c1cc(NC(=O)[C@H]2[C@H](c3cc(Cl)cc(Cl)c3)C2(Cl)Cl)ccc1Cl)C(=O)c1ccccc1 (relative stereo) [F2527, trans-N-(3-(2-Benzoyl-2-methylhydrazine-1-carbonyl)-4-chlorophenyl)-2,2-dichloro-3-(3,5-dichlorophenyl)cyclopropane-1-carboxamide] | – | – | 50 to 100 | 50 to 100
